Read-outs that look alike come from different tables or passages of the source.

One test deals with HCT116 MTAP null cells. The test can be described thus: HCT116 proliferation assay, MTAP null cells (CellTiter-Glo, 6 days). It counts as cell-based. The following applies: 144 h, read-out: Protif_ HCT116-MTAP null IC50. Summed up:
(§1)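 Compound titrations (top dose 1 or 10 µM, 1:3 dilution, 8 or 9 concentrations) and a DMSO control were applied to cells cultured overnight beforehand in RPMI 1640 with 10% FBS at 37° C, 5% CO2; viability was scored from luminescence.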
In general terms: Cellular ATP, detected with luciferase, serves as a proxy for viable cell number.

The next test concerns HCT116 WT cells. The test can be described thus: HCT116 proliferation assay, WT cells (CellTiter-Glo, 6 days). The format is cell-based. The following applies: Homo sapiens, HCT-116, 144 h, read-out: Prolif_HCT116-WT IC50. Summed up:
as §1

Another test deals with PRMT5/MEP50 (Homo sapiens, UniProt O14744). Briefly: MTase-Glo methyl transferase assay, Method A (Histone H4 peptide, 1 µM MTA, 24 h pre-incubation). The format is biochemical. Also on record: made in house. The following applies: read-out: PRMT5 MTase Glo Ki (nM, Meth. A). The procedure: Method A: The PRMT5 inhibitory activity of test compounds was determined using the MTase-Glo™ assay (Promega), which monitors the product (S-adenosyl homocysteine or SAH) of methyltransferase reactions. The PRMT5 MTase-Glo assay was conducted in a 384-well white ProxiPlate (PerkinElmer) in a total volume of 12 µL. The PRMT5 enzymatic reaction (in 4 µL) contained 10 nM PRMT5/MEP50 (produced at Amgen), 5 µM S-adenosyl methionine (SAM, Promega), 1 µM Histone H4 (1-21)-Lys(Biotin) (Anaspec), 1 µM 5′-methylthioadenosine (MTA, Sigma) and two-fold serially diluted compounds in a reaction buffer of 50 mM Tris (pH 8.0), 50 mM NaCl, 0.01% Tween 20, 0.01% BSA, and 1 mM DTT. Test compounds were pre-incubated with PRMT5/MEP50, SAM, and MTA for 24 hours before addition of Histone H4 peptide to initiate the PRMT5 reaction. The reaction was allowed to proceed for 2 hours at room temperature and was then terminated by addition of 2 µL of 3X MTase-Glo™ Reagent (Promega) and 150 µM EPZ015666 (Sigma). After a 30-minute incubation at room temperature, 6 µL of MTase-Glo™ Detection Solution (Promega) was added and the plate was incubated at room temperature for an additional 30 minutes. The light signal corresponding to the amount of SAH produced by the PRMT5 reaction was subsequently measured using an Envision multimode reader (PerkinElmer). IC50 and KI values were obtained by analyzing dose-response curves using Genedata Screener (Genedata).
PRMT5/MEP50, sequence (O14744 whole entry): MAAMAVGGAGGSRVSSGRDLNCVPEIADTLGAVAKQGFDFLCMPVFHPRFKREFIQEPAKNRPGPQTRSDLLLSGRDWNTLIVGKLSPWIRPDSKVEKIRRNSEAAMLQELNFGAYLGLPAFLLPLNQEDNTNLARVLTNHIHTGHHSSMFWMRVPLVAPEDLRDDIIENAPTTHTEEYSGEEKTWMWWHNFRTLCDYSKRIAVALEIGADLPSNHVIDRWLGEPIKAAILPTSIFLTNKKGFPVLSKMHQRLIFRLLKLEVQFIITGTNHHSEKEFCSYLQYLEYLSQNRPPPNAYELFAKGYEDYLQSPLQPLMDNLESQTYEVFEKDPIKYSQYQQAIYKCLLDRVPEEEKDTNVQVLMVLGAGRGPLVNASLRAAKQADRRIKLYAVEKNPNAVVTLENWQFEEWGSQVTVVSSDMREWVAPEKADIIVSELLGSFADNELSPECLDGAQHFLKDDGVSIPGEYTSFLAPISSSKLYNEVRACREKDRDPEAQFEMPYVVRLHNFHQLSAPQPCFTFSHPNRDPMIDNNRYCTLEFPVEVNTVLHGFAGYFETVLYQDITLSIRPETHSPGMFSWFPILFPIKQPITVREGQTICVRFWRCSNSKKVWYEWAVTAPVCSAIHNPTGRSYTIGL
PRMT5/MEP50, sequence (Q9BQA1 whole entry partner): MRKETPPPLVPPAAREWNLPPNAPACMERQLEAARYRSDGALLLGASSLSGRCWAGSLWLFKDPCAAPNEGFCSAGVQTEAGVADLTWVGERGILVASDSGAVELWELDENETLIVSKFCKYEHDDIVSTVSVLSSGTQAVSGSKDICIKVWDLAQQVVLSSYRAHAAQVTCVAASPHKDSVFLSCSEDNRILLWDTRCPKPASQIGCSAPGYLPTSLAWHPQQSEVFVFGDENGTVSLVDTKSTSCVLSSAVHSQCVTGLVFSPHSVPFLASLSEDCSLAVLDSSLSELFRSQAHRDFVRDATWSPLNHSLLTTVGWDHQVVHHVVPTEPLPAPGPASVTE

What is called IC50 is the midpoint of a concentration-inhibition curve. Usually Ki stands for the equilibrium dissociation constant of an inhibitor or competing ligand from its target. As for `Cc1cc2cc(C(=O)N(Cc3ccc(C#N)cn3)[C@@H]3CCC[C@H]3O)ccc2nc1N` [Example 365, 2-amino-N-((5-cyanopyridin-2-yl)methyl)-N-((1R,2R)-2-hydroxycyclopentyl)-3-methylquinoline-6-carboxamide], the 50% inhibitory concentration (IC50) with HCT116 MTAP null cells (HCT116-MTAP null) is 391 nM; with HCT116 WT cells it was greater than 10000 nM. Further, at PRMT5/MEP50, the Ki worked out at 0.42 nM.

Regarding `Cc1cc2cc(C(=O)N(Cc3ccc(C(F)(F)F)cn3)C[C@@H](C)C(F)(F)F)ccc2nc1N` (single isomer, unassigned) [Example 457], the IC50 with HCT116 MTAP null cells is 717 nM; with HCT116 WT cells, greater than 10000 nM. The Ki at PRMT5/MEP50 stood at 0.78 nM.

With `Cc1cc2cc(C(=O)N(Cc3ccc(C(F)(F)F)cn3)Cc3ccnc4[nH]ccc34)ccc2nc1N` [Example 356, 2-amino-3-methyl-N-(1H-pyrrolo[2,3-b]pyridin-4-ylmethyl)-N-((5-(trifluoromethyl)-2-pyridinyl)methyl)-6-quinolinecarboxamide], the figures for the 50% inhibitory concentration (IC50) in the test with HCT116 MTAP null cells (HCT116-MTAP null) and in the test with HCT116 WT cells were 35 nM and 801 nM, respectively. Also, the Ki at PRMT5/MEP50 was 0.02 nM.

Take `N#Cc1ccc(CN(C(=O)c2cnc3nc(N)c(Br)cc3c2)[C@@H](c2ncccn2)C2CC2)nc1` [Example 425, (R)-7-amino-6-bromo-N-((5-cyanopyridin-2-yl)methyl)-N-(cyclopropyl(pyrimidin-2-yl)methyl)-1,8-naphthyridine-3-carboxamide]: the concentration for half-maximal inhibition (IC50) was 380 nM in the test with HCT116 MTAP null cells (HCT116-MTAP null) and 2170 nM with HCT116 WT cells. For the same compound, the Ki at PRMT5/MEP50 is 0.68 nM.

Regarding `Cc1cc2cc(C(=O)N(Cc3ccc(C(F)(F)F)cn3)[C@H]3CCCc4nccnc43)ccc2nc1N` (single isomer, unassigned) [Example 522, 2-amino-3-methyl-N-((5 S)-5,6,7,8-tetrahydro-5-quinoxalinyl)-N-((5-(trifluoromethyl)-2-pyridinyl)methyl)-6-quinolinecarboxamide], the concentration for half-maximal inhibition (IC50) in the test on HCT116 MTAP null cells (HCT116-MTAP null) came out at 868 nM; in the test on HCT116 WT cells, 5570 nM. For the same compound, the Ki at PRMT5/MEP50 came to 49.9 nM.

For the compound `Cc1cc2cc(C(=O)N(Cc3ccc(Br)nn3)[C@H](C)c3ncccn3)ccc2nc1N` (single isomer, unassigned) [Example 450], the 50% inhibitory concentration (IC50) in the test on HCT116 MTAP null cells (HCT116-MTAP null) was determined as 45 nM; with HCT116 WT cells it was 2020 nM. In addition, the inhibitory constant (Ki) on PRMT5/MEP50 came out at 0.13 nM.

For `Cc1cc2cc(C(=O)N(Cc3ccc(C(F)(F)F)nn3)[C@H](C)c3ncccc3F)ccc2nc1N` [Example 510, 2-amino-N-((1R)-1-(3-fluoro-2-pyridinyl)ethyl)-3-methyl-N-((6-(trifluoromethyl)-3-pyridazinyl)methyl)-6-quinolinecarboxamide], the IC50 in the test on HCT116 MTAP null cells (HCT116-MTAP null) is 70 nM; in the test with HCT116 WT cells, 1910 nM. Further, the Ki at PRMT5/MEP50 is 0.32 nM.

For the compound `Cc1cc2cc(C(=O)N(Cc3ccc(C(F)F)cn3)[C@H](C)c3ncc(F)cn3)ccc2nc1N` (single isomer, unassigned) [Example 455], the IC50 worked out at 100 nM with HCT116 MTAP null cells (HCT116-MTAP null) and 2940 nM in the test with HCT116 WT cells. In addition, the inhibition constant Ki on PRMT5/MEP50 stood at 0.16 nM.

Take `C[C@H](c1ncccc1F)N(Cc1ccc(C#N)cn1)C(=O)c1ccc2nc(N)c(Cl)cc2c1` [Example 351, 2-amino-3-chloro-N-((5-cyano-2-pyridinyl)methyl)-N-((1R)-1-(3-fluoro-2-pyridinyl)ethyl)-6-quinolinecarboxamide]: the half-inhibitory concentration (IC50) was 824 nM in the test with HCT116 MTAP null cells (HCT116-MTAP null) and greater than 10000 nM in the test on HCT116 WT cells. On PRMT5/MEP50, the inhibition constant Ki was determined as 1.29 nM.

Consider `Cc1cc2cc(C(=O)N(Cc3ccc(Br)nn3)[C@H](C)c3ncccn3)c(F)cc2nc1N` [Example 349, 2-amino-N-((6-bromo-3-pyridazinyl)methyl)-7-fluoro-3-methyl-N-((1R)-1-(2-pyrimidinyl)ethyl)-6-quinolinecarboxamide], for which the half-inhibitory concentration (IC50) in the test on HCT116 MTAP null cells (HCT116-MTAP null) stood at 36 nM; in the test on HCT116 WT cells, 848 nM. The Ki at PRMT5/MEP50 was 0.02 nM.

Take `Cc1cc2cc(C(=O)N(Cc3ccc(C(F)(F)F)nn3)[C@@H](c3ncccn3)C3CC3)ccc2nc1N` (single isomer, unassigned) [Example 518]: the IC50 in the test on HCT116 MTAP null cells (HCT116-MTAP null) turned out to be 47 nM; in the test on HCT116 WT cells, 851 nM. For the same compound, the Ki at PRMT5/MEP50 was 0.11 nM.

Consider `C[C@H](c1ncccn1)N(Cc1ccc(C(F)(F)F)nn1)C(=O)c1cnc2nc(N)c(Br)cc2c1` (single isomer, unassigned) [Example 444], for which the half-inhibitory concentration (IC50) in the test on HCT116 MTAP null cells (HCT116-MTAP null) is 327 nM; in the test on HCT116 WT cells it was greater than 10000 nM. In addition, the inhibitory constant (Ki) at PRMT5/MEP50 came out at 0.15 nM.

Turning to `Cc1cc2cc(C(=O)N(Cc3ncc(C#N)cc3C)[C@H](C)c3ncccn3)ccc2nc1N` [Example 549, 2-amino-N-((5-cyano-3-methyl-2-pyridinyl)methyl)-3-methyl-N-((1R)-1-(2-pyrimidinyl)ethyl)-6-quinolinecarboxamide], the half-maximal inhibitory concentration (IC50) with HCT116 MTAP null cells (HCT116-MTAP null) amounted to 275 nM; in the test with HCT116 WT cells, 5090 nM. Further, the Ki at PRMT5/MEP50 is 0.07 nM.

For `Cc1cc2cc(C(=O)N(Cc3ccc(C(F)(F)F)cn3)C3CC3)c(F)cc2nc1N` [Example 332, 2-amino-N-cyclopropyl-7-fluoro-3-methyl-N-((5-(trifluoromethyl)-2-pyridinyl)methyl)-6-quinolinecarboxamide], the half-inhibitory concentration (IC50) with HCT116 MTAP null cells (HCT116-MTAP null) was found to be 479 nM; with HCT116 WT cells it was 5140 nM. Further, the Ki at PRMT5/MEP50 is 4.87 nM.

Regarding `Cc1cc2cc(C(=O)N(Cc3ccc(Br)nn3)[C@@H]3CCC[C@H]3O)ccc2nc1N` [Example 366, 2-amino-N-((6-bromo-3-pyridazinyl)methyl)-N-((1R,2R)-2-hydroxycyclopentyl)-3-methyl-6-quinolinecarboxamide], the 50% inhibitory concentration (IC50) in the test with HCT116 MTAP null cells (HCT116-MTAP null) came out at 218 nM; in the test on HCT116 WT cells, 7010 nM. Moreover, at PRMT5/MEP50, the inhibition constant Ki was found to be 0.18 nM.

In the case of `Cc1cc2cc(C(=O)N(Cc3ccc(C(F)(F)F)cn3)[C@@H]3CCCc4nccnc43)ccc2nc1N` (single isomer, unassigned) [Example 521], the results for the IC50 in the test on HCT116 MTAP null cells (HCT116-MTAP null) and in the test on HCT116 WT cells were 12 nM and 78 nM, respectively. On PRMT5/MEP50, the Ki was found to be 0.01 nM.

For the compound `Cc1cc2cc(C(=O)N(Cc3ccc(C(F)(F)F)cn3)[C@@H]3CCCC[C@H]3O)ccc2nc1N` [Example 361, 2-amino-N-((1R,2R)-2-hydroxycyclohexyl)-3-methyl-N-((5-(trifluoromethyl)-2-pyridinyl)methyl)-6-quinolinecarboxamide], the IC50 in the test with HCT116 MTAP null cells (HCT116-MTAP null) is 116 nM; with HCT116 WT cells, 3220 nM. In addition, the inhibition constant Ki at PRMT5/MEP50 stood at 2.1 nM.

With `Cc1cc2cc(C(=O)N(Cc3ccc(C(F)(F)F)cn3)[C@H](C)c3ncc(F)cn3)cnc2nc1N` (single isomer, unassigned) [Example 481], the IC50 in the test on HCT116 MTAP null cells (HCT116-MTAP null) was determined as 225 nM; with HCT116 WT cells, 4450 nM. Besides, the inhibition constant (Ki) at PRMT5/MEP50 is 0.18 nM.

Consider `Cc1cc2cc(C(=O)N(Cc3ccc(C(F)(F)F)cn3)[C@@H](c3ncccn3)C3CC3)ccc2nc1N` (single isomer, unassigned) [Example 452], for which the half-inhibitory concentration (IC50) with HCT116 MTAP null cells (HCT116-MTAP null) was 22 nM; with HCT116 WT cells, 480 nM. In addition, the inhibition constant (Ki) at PRMT5/MEP50 stood at 0.06 nM.

In the case of `Cc1cc2cc(C(=O)N(Cc3ccc(Br)cn3)CC(C)C)ccc2nc1N` [Example 357, 2-amino-N-((5-bromo-2-pyridinyl)methyl)-3-methyl-N-(2-methylpropyl)-6-quinolinecarboxamide], the IC50 was found to be 385 nM with HCT116 MTAP null cells (HCT116-MTAP null) and 7050 nM with HCT116 WT cells. Besides, the Ki at PRMT5/MEP50 came to 4.34 nM.

On to `Cc1cc2cc(C(=O)N(Cc3ccc(C4CCOCC4)cn3)[C@H](C)c3ncccn3)ccc2nc1N` [Example 559, 2-amino-3-methyl-N-((1R)-1-(2-pyrimidinyl)ethyl)-N-((5-(tetrahydro-2H-pyran-4-yl)-2-pyridinyl)methyl)-6-quinolinecarboxamide], for which the IC50 with HCT116 MTAP null cells (HCT116-MTAP null) was found to be 147 nM; in the test on HCT116 WT cells, 2190 nM. The Ki at PRMT5/MEP50 is 0.07 nM.

Source of the values: patent publication US20230159510A1, “NOVEL PRMT5 INHIBITORS” (AMGEN INC., priority 2020, published 2023).
